Test results published in publication PMC9856072, “Complexed Crystal Structure of the Dihydroorotase Domain of Human CAD Protein with the Anticancer Drug 5-Fluorouracil” (Biomolecules, 2023).
Changes are numbered by the printed parent chain.

Columns and labels:
Type in all cases: binding
[1] = biological target: T1, dihydroorotase domain of human CAD (huDHOase) (Homo sapiens, UniProt P27708); assay: co-crystal structure ([…] Å) and intrinsic fluorescence quenching
T1 construct: residues 1456–1846 in human CAD protein, C-terminal His tag
T1 sequence (P27708 1456-1846): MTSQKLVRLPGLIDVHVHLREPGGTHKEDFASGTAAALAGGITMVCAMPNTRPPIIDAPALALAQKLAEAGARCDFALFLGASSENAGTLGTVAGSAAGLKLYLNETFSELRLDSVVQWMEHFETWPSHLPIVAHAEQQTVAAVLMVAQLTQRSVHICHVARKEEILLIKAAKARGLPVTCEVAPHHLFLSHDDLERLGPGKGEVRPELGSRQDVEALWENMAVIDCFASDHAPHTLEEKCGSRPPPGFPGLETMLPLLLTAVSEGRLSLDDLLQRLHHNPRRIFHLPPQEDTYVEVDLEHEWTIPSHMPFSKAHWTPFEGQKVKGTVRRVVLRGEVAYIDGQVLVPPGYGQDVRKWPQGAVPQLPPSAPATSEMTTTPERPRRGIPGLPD

[2] = biological target: T2, dihydroorotase domain of human CAD (huDHOase) (Homo sapiens, UniProt P27708, T1562A); assay: intrinsic fluorescence quenching titration
T2 construct: residues 1456–1846 in human CAD protein, C-terminal His tag
T2 sequence (P27708 1456-1846 T1562A): T1 sequence (P27708 1456-1846) with T107A

[3] = biological target: T3, dihydroorotase domain of human CAD (huDHOase) (Homo sapiens, UniProt P27708, R1475A); assay: intrinsic fluorescence quenching titration
T3 construct: residues 1456–1846 in human CAD protein, C-terminal His tag
T3 sequence (P27708 1456-1846 R1475A): T1 sequence (P27708 1456-1846) with R20A

[4] = biological target: T1, dihydroorotase domain of human CAD (huDHOase); assay: co-crystal structure ([…] Å)

SMILES	Kd [1]	Kd [2]	Kd [3]	co-crystal structure (1.64 Å) [4]
O=c1[nH]cc(F)c(=O)[nH]1 [5-FU, 5-fluorouracil]	91.2 ± 1.7 µM	146 ± 2.1 µM	161.5 ± 1.6 µM	
O=C(O)CC(O)C(=O)O (stereo not shown) [malate]				This complexed structure revealed that malate is bound at the active site of huDHOase
